# Data reported in ChEMBL document CHEMBL1201862, “PubChem BioAssay data set” (2004).
# The source made the active and inactive calls.
# Columns and labels:
# [1] = target: T1, Methionyl-tRNA synthetase, putative (Trypanosoma brucei brucei, UniProt Q38C91); type: functional, Trypanosoma brucei brucei strain 927/4 GUTat10.1
# [2] = target: T1, Methionyl-tRNA synthetase, putative; type: functional, Trypanosoma brucei brucei strain 927/4 GUTat10.1; remark: listed apart in the source
# [3] = Counterscreen for inhibitors of Trypanosoma brucei methionyl tRNA synthetase (MetRS): Luminescence-based cell-based high throughput dose response assay to identify compounds that are cytotoxic to Jurkat human T lymphocyte cells.; type: functional
# INS1 = assay: beta cell apoptosis inhibitors, cytokine rescue, dose response, luminescence, retest (AID 449756); type: functional, cell-based; conditions: Rattus norvegicus;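 note: cell death triggered by IL-1 beta plus TNF-alpha plus IFN-gamma mixture; protective hits raise ATP signal compared with cytokine alone wells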
# Beta-lactamase [4] = target: T2, Beta-lactamase (Pseudomonas aeruginosa, UniProt Q79MP6); assay: […] counterscreen for selective VIM-2 inhibitors: dose response biochemical high throughput screening assay to identify inhibitors of IMP-1 metallo-beta-lactamase.
# T2 sequence (Q79MP6 whole entry): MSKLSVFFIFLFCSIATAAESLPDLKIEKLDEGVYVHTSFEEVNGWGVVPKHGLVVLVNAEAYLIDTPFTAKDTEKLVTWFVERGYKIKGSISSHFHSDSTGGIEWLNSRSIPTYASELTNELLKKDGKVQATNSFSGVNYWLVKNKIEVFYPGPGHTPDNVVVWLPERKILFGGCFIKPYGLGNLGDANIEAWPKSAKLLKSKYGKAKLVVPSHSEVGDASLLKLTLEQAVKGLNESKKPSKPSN
# Beta-lactamase [5] = target: Beta-lactamase (Salmonella choleraesuis (strain SC-B67), UniProt Q5J463); assay: Epi-absorbance-based counterscreen for selective VIM-2 inhibitors: dose response biochemical high throughput screening assay to identify inhibitors of TEM-1 serine-beta-lactamase.
# Beta-lactamase (Salmonella choleraesuis (strain SC-B67), UniProt Q5J463), sequence (Q5J463 whole entry): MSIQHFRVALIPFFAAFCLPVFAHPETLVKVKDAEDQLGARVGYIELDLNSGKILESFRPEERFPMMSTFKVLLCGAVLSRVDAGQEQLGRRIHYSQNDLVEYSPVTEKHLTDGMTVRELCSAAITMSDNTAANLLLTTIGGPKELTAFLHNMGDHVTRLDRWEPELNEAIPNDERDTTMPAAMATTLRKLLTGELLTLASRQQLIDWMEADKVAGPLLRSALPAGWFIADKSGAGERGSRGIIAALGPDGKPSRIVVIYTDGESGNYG
# Beta-lactamase [6] = target: T2, Beta-lactamase; assay: IMP-1 metallo-beta-lactamase inhibitors, dose response, selectivity assay for VIM-2 inhibitor project, biochemical, epi-absorbance (AID 1920)
# [7] = target: Beta-2 adrenergic receptor (Homo sapiens, UniProt P07550); assay: Dose response for HTS for Beta-2AR agonists via FAP method from Powderset3.; type: functional
# Beta-2 adrenergic receptor, sequence (P07550 whole entry): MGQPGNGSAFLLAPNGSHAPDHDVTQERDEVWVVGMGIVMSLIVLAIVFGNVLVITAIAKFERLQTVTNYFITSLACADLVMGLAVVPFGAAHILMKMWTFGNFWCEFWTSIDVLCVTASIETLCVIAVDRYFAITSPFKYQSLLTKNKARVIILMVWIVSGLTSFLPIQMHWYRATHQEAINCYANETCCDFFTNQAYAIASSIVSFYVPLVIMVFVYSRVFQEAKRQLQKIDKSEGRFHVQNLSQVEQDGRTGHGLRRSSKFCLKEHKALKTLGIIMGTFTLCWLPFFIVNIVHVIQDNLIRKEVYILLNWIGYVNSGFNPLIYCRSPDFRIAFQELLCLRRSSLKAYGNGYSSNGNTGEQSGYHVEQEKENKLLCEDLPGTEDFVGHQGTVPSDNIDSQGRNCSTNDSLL
# Beta-galactosidase = Beta-galactosidase (Escherichia coli, UniProt Q8VNN2); type: functional
# Protein RecA = target: T3, Protein RecA (Mycobacterium tuberculosis, UniProt P9WHJ3); assay: Fluorescence Cell-Free Homogeneous Dose Retest to Identify Inhibitors of RecA-Intein Splicing Activity. [Related pubchem assays (depositor defined):AID2097, AID2223, AID489010, AID492950]; type: functional
# T3 sequence (P9WHJ3 whole entry): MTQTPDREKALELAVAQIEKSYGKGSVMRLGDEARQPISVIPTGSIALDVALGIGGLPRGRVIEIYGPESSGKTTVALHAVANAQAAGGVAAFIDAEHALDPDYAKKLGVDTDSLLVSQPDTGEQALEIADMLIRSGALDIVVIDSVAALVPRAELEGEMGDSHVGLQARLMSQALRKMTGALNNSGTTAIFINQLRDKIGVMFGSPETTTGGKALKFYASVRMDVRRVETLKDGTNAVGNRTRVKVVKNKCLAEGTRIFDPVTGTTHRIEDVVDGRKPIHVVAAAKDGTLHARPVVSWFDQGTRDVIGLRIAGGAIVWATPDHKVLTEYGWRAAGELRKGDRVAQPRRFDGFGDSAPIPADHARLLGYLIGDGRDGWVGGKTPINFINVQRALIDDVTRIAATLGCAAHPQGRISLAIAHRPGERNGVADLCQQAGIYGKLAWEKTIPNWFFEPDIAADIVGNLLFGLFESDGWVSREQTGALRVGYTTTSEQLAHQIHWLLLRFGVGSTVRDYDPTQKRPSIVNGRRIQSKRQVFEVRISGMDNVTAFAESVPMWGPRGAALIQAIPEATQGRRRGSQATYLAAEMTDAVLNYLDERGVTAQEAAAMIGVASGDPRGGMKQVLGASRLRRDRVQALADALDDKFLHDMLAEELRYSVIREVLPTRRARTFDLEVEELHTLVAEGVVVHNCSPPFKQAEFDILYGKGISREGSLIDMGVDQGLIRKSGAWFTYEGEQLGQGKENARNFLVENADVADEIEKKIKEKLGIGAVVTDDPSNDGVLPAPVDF
# [8] = target: T4, Delta-type opioid receptor (Homo sapiens, UniProt P41143); assay: HTS Image-Based Screen for Agonists of the DOR Receptor. [Related pubchem assays (depositor defined):AID1777, AID1786, AID2133]; type: functional
# T4 sequence (P41143 whole entry): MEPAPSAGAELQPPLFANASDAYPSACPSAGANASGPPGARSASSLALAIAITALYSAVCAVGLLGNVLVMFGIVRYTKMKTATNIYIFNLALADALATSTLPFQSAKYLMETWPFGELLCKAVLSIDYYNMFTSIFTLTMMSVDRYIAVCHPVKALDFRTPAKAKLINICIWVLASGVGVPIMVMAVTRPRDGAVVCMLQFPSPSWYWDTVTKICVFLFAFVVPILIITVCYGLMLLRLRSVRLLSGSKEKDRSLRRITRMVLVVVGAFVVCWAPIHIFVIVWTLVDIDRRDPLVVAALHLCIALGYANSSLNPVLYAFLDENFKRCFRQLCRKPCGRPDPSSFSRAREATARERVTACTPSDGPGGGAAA
# [9] = target: T4, Delta-type opioid receptor; assay: HTS Image-Based Screen for Antagonists of the DOR Receptor. [Related pubchem assays (depositor defined):AID1777, AID1785, AID1786, AID2133]; type: functional
# CHO = assay: cytotoxicity in TLR9-MyD88 CHO cells, dose response, cytotoxicity control for TLR9-MyD88 binding inhibitor project, cell-based, luminescence (AID 588339); type: functional, hamster; conditions: Cricetulus griseus;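 note: CHO cells stably coexpressing TLR9 and MyD88 fusions from primary screen; compound exposure lasted 48 hours before viability readout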
# [10] = control 3'UTR Renilla luciferase suppression, dose response, counter-screen for Shn3 inhibitor project, cell-based, Clone20-Shn3RL, cherry-picked (AID 624133); type: functional
# Beta Lactamase = Beta Lactamase (Pseudomonas aeruginosa, UniProt Q932Y6); assay: beta-lactamase reporter inhibitor potency, dose response, artefact control for TLR9-MyD88 binding inhibitor project, BLA reporter cells, FRET fluorescence (AID 588341); type: cell-based;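 note: cell based assay in CHO-K1 cells stably expressing beta-lactamase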
# Beta Lactamase, sequence (Q932Y6 whole entry): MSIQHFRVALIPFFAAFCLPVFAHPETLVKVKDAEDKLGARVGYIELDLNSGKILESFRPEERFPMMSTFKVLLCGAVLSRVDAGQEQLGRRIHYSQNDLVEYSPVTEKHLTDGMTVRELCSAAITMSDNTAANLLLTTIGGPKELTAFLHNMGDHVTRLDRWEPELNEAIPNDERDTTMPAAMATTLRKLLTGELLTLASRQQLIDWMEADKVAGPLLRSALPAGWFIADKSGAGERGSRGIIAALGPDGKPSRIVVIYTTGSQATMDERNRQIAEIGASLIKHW
# [11] = HepG2 cell cytotoxicity, dose response, cytotoxicity control for Shn3 inhibitor project, CellTiter-Glo, cherry-picked (AID 624134); type: functional, cell-based
# Mu-type opioid receptor = Mu-type opioid receptor (Homo sapiens, UniProt P35372); assay: HTS Image-Based Screen for Agonists of the MOR Receptor. [Related pubchem assays (depositor defined):AID1777, AID1785, AID1786, AID2133]; type: functional;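 note: imaging of beta-arrestin GFP recruitment into spots after receptor activation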
# Mu-type opioid receptor, sequence (P35372 whole entry): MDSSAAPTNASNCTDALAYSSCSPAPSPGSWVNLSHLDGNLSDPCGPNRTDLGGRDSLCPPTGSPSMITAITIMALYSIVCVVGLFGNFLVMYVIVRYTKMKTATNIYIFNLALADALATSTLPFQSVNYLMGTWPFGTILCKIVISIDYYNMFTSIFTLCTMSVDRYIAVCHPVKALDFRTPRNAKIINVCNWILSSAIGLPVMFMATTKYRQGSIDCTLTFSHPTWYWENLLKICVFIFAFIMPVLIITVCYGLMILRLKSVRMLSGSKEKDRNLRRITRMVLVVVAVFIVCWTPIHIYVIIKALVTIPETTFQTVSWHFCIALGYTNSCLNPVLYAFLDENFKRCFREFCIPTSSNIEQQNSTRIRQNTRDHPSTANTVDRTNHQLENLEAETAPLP
# [12] = target: Heat shock protein HSP 90-alpha (Homo sapiens, UniProt P07900); type: functional, organism-based
# [13] = target: ATP-binding cassette sub-family B member 6 (Homo sapiens, UniProt Q9NP58); assay: ABCB6 transporter inhibitors, porphyrin accumulation, dose response, flow cytometry, K562-ABCB6 cells, cherry pick 02 (AID 624487); type: functional; conditions: read-out: EC50_MICROM
# ATP-binding cassette sub-family B member 6, sequence (Q9NP58 whole entry): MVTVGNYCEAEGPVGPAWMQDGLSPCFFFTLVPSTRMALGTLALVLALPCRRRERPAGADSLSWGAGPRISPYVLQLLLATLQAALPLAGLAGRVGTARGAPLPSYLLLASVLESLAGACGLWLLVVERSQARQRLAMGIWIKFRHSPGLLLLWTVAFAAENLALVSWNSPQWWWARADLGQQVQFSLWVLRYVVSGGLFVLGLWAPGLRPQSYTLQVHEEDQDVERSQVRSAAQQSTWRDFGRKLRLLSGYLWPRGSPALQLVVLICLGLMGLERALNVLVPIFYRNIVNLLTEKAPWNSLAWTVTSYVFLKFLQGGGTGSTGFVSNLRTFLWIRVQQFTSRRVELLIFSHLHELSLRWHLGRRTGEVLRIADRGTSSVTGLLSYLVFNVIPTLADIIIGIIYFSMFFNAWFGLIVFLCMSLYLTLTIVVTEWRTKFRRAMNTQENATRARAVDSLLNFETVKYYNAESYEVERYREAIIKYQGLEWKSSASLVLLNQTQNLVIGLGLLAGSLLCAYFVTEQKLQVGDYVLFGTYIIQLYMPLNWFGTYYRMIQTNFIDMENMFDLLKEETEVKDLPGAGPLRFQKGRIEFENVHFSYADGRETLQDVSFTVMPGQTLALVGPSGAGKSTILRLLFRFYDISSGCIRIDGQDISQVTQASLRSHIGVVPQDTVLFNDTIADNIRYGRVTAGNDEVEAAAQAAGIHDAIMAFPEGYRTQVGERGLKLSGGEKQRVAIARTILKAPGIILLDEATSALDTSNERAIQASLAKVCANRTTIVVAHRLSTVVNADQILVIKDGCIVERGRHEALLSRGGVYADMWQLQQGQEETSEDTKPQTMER
# [14] = target: T5, Replicative DNA helicase DnaB (Mycobacterium tuberculosis, UniProt P9WMR3); assay: DnaB intein splicing inhibitors, dose response, biochemical, cell-free fluorescence (AID 449749); type: functional
# T5 sequence (P9WMR3 whole entry): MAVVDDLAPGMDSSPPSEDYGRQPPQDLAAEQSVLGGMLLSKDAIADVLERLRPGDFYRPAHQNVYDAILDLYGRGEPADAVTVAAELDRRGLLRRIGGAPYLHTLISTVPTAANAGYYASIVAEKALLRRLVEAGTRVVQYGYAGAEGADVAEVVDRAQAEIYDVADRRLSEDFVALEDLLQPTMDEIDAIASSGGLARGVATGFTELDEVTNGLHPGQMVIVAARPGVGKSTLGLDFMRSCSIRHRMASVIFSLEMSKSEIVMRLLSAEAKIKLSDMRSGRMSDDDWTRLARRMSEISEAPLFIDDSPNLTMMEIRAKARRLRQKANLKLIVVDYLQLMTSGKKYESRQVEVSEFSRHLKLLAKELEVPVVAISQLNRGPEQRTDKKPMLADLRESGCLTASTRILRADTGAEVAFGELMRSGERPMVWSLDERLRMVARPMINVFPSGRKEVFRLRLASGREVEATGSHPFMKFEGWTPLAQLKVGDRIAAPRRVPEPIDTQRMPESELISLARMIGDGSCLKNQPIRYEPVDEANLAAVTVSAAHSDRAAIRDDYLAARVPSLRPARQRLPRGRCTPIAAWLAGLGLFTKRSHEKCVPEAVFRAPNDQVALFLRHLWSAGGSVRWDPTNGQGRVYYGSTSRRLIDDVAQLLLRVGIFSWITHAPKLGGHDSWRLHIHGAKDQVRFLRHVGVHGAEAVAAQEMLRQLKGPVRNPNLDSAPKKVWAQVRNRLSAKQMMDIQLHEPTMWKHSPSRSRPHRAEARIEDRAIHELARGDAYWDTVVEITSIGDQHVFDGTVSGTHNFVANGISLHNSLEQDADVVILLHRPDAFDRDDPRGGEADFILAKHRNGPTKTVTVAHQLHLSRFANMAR
# [15] = Shn3 3'UTR reporter inhibitors, dose response, cell-based, Clone20 osteoblasts, firefly luciferase, cherry-picked (AID 624132); type: functional;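 note: firefly luciferase luminescence from reporter carrying the Shn3 3'UTR in osteoblasts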
# [16] = target: T6, Kappa-type opioid receptor (Homo sapiens, UniProt P41145); type: functional
# T6 sequence (P41145 whole entry): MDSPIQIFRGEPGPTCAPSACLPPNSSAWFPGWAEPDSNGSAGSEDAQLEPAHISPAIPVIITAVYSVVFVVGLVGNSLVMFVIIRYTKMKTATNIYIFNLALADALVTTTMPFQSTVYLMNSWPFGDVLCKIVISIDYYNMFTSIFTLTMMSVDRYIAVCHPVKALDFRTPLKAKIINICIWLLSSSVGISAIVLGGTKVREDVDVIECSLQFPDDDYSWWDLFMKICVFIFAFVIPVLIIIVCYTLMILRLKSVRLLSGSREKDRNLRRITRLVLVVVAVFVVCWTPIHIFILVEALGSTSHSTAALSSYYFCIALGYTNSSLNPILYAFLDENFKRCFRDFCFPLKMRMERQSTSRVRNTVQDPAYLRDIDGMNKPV
# [17] = target: T6, Kappa-type opioid receptor; type: functional; remark: listed apart in the source
# T1 sequence (Q38C91 whole entry): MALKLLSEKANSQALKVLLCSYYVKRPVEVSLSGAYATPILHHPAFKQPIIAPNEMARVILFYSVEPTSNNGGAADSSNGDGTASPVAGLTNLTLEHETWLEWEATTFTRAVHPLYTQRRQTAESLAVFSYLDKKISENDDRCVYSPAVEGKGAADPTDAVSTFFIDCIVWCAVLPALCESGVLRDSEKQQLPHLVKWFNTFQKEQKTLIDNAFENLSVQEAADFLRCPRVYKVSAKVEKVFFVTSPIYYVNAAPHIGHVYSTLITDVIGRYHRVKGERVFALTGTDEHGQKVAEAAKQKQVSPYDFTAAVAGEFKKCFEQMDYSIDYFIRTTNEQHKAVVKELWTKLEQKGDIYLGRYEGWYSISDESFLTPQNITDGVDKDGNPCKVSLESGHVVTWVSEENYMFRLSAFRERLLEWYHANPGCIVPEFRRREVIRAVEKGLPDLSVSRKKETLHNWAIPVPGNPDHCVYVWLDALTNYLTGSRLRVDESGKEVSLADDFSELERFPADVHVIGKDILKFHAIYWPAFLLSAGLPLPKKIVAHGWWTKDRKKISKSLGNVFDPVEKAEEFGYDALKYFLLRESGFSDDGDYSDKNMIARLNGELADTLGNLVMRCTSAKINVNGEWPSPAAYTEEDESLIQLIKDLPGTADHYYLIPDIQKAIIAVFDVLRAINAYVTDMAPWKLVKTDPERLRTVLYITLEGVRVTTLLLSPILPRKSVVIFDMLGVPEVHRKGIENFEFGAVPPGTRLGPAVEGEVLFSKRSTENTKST
smiles,measurement,setting,value
O=C(NCc1nc2ccccc2[nH]1)C1=C[C@@H](C2CCCCC2)C[C@@H](OCc2ccc(CO)cc2)O1,IC50,[1],6.42 µM (active)
same,IC50,[2],2.85 µM (active)
same,IC50,[3],38.9 µM (inactive)
same,AC50,INS1,13.1 µM (active)
S=c1[nH]nc(C2CC2)n1Cc1ccccc1,IC50,Beta-lactamase [4],> 59.6 µM (inactive)
same,IC50,Beta-lactamase [5],> 59.6 µM (inactive)
same,IC50,Beta-lactamase [6],> 59.6 µM (inactive)
COCc1ccc(CN2CCCC(C(=O)Nc3ccc(-c4cccc(OC)c4)cc3)C2)o1 (stereo not drawn),EC50,[7],607 µM (inactive)
CCc1ccc(NC(=O)c2nc(S(=O)(=O)Cc3ccccc3)ncc2Cl)cc1,EC50,Beta-galactosidase,> 31.5 µM (inactive)
same,EC50,Protein RecA,1.82 µM (active)
same,EC50,[8],> 32 µM (inactive)
same,IC50,[9],11.9 µM (inactive)
same,IC50,CHO,2.91 µM (active)
same,AC50,[10],8.1 µM (active)
same,IC50,Beta Lactamase,12.1 µM (inactive)
same,AC50,[11],24.4 µM (active)
same,EC50,Mu-type opioid receptor,> 32 µM (inactive)
same,AC50,[12],1.74 µM (active)
same,EC50,[13],23.9 µM (active)
same,AC50,[14],2.28 µM (active)
same,AC50,[15],0.551 µM (active)
same,IC50,[16],13.7 µM (active)
same,IC50,[17],7.28 µM
